From patent US9289468B2, “Fusion protein comprising circularly permuted form of trail/Apo2L, coding gene and use thereof” (Beijing Sunbio Biotech Co. Ltd., priority 2011, dated 2016) come the findings set out here.

This experiment has as its system human multiple myeloma cell line U266. The experiment can be described thus: Combination with melphalan, cell survival (ATPlite). The class given is cell-based. As to the method:
FIG. 9. […] U266 cells are insensitive to CPT. At the concentration of 1 μg/ml, NCPT-1.M1 alone has a mild killing effect on U266 (<20%), but with the presence of melphalan (12.5˜50 μg/ml), both of them can cause enhanced killing effect. The cell viability was assayed with ATPlite luminescent system (PerkinElmer), the data as shown in this figure are all represented as the mean±standard deviation, n=4, #P<0.05, ##P<0.01 vs. melphalan group; *P<0.05 vs. NCPT-1.M1 group.
(In general: ATP-based viability assays read luminescence as a measure of living cells.)

`N[C@@H](Cc1ccc(N(CCCl)CCCl)cc1)C(=O)O` [melphalan, reference compound]: the “cell survival rate, melphalan alone” value (melphalan 12.5˜50 μg/ml, 48 h, U266B1) is listed as 11.9˜100.9%.

B1: CPT: recombinant human circularly permuted TRAIL: amino acids 135-281, a linker, amino acids 122-135; SEQ ID NO: 1 (protein)
chain: TLSSPNSKNEKALGRKINSWESSRSGHSFLSNLHLRNGELVIHEKGFYYIYSQTYFRFQEEIKENTKNDKQMVQYIYKYTSYPDPILLMKSARNSCWSKDAEYGLYSIYQGGIFELKENDRIFVSVTNEHLIDMDHEASFFGAFLVGGGGGGVAAHITGTRGRSNT
modifications: CPT polypeptide sequence
Take B1: under “U266 / U266B1”, the “sensitivity of the cell line” value is “insensitive”.
